The record followed here is the METLIN SMRT retention time set (Domingo-Almenara et al. 2019).

The structures appear in SMILES notation.

This data set can be described thus: gradient 5% acetonitrile 3 min, to 50% in 2 min, to 85% in 15 min, held 3 min, 100 µL/min. As to conditions: column: Zorbax Extend-C18 2.1 x 50 mm; eluents: water / acetonitrile, 0.1% formic acid. The gist of the method: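 Standards, all pure, were combined into mixtures of ~100 molecules and run at 100 μL/min on a Zorbax Extend-C18 column (2.1 × 50 mm, 1.8 μm) with water and acetonitrile, each containing 0.1% formic acid. A coupled quadrupole time-of-flight mass spectrometer operated in positive and negative ionization mode. Retention time values come from computationally picked adduct peaks, each inspected manually.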
Molecule `CN1C(=O)c2cccn2CC1C(=O)NCCc1c[nH]c2ccccc12` (stereo not drawn) came in with an RP-LC retention time of 690 s.
As for `O=C(C1CCN(S(=O)(=O)N2CCCC2)CC1)N1CCN(Cc2noc3ccccc23)CC1`, the figure is 671 s.
The value for `CCCc1cc(N2CCN(C(=O)c3ccc(N(C)C)cc3)CC2)nc2nncn12` was 612 s.
The value for `CN(C)S(=O)(=O)c1ccc(-c2nnc(NC(=O)c3ccc4ncsc4c3)o2)cc1` was 669 s; that for `Cc1ccccc1Cn1cc(C(=O)Nc2cccc(Br)c2)ccc1=O` was 877 s; that for `Cc1cccc(CNC(=O)C2CCN(S(=O)(=O)c3cn(C(C)C)cn3)CC2)c1` was 773 s.
In turn, `COc1ccccc1N1CCN(CCCNc2cc(=O)n(C)c(=O)n2C)CC1` displayed an RP-LC retention time of 637 s.
The value for `COc1ncc(C(=O)NCc2cc(F)cc(F)c2)cn1` was 718 s.
As for `Cc1ccc(NC(=O)N2CCC(n3cnc4ccc(C)cc4c3=O)CC2)c(C)c1`, the figure is 795 s; as for `O=C(Nc1ccc(Cl)cc1)C1CCN(C(=O)c2ncn3c2COC(c2ccc(F)cc2)C3)CC1` (stereo not drawn), 874 s; as for `CCOc1ccccc1NC(=O)N1CCC(n2cnc3c(Cl)cccc3c2=O)CC1`, 889 s.
The value for `CCCc1ccc(S(=O)(=O)N2CCc3c(c(-c4nnc(SCC)n4CC)nn3C)C2)cc1` was 1090 s; that for `Cc1ccc(C(=O)N2CCN(c3nc(CN4CCOCC4)cs3)CC2)cc1F` was 629 s.
With `CO[C@@H]1[C@H](OC(=O)/C=C/C=C/C=C/C=C/C(=O)O)CC[C@]2(CO2)[C@H]1[C@@]1(C)O[C@@H]1CC=C(C)C`, the RP-LC retention time was determined as 954 s.
As for `CCNc1cc(N2CCC(CCC(=O)N3CCCN(c4ncccn4)CC3)CC2)ncn1`, the figure is 596 s; as for `O=C(NCC(F)(F)F)C1CCN(S(=O)(=O)CCN2C(=O)CCCC2=O)CC1`, 637 s.
For the molecule `COc1cc(N2C=C(C#N)S(=O)(=O)c3ccc(Cl)cc32)c(OC)cc1Cl`, the RP-LC retention time was 1050 s.
The value for `COc1ccc(C(C)NC(=O)CCc2nnc3c4cc(-c5ccc(F)cc5)nn4ccn23)cc1OC` (stereo not drawn) was 722 s; that for `CCOC(=O)c1ccc(N2C=C(C#N)S(=O)(=O)c3ccc(C)cc32)cc1` was 978 s; that for `Fc1ccccc1-c1noc(Cc2nnc(-c3cccc(Cl)c3)o2)n1` was 1080 s.
As for `CC(C)C(=O)Nc1ccc(C2(C(=O)Nc3ccc(N4CCOCC4)cc3)CCCCC2)cc1`, the figure is 888 s.
`Cc1nc2nc(-c3ccc(C(C)(C)C)cc3)nn2c(C)c1CC(=O)N1CCN(CCO)CC1`: the RP-LC retention time came out at 657 s.
The value for `Cc1cc(C)cc(NC(=O)N2CCC(c3nc(C(=O)N(C)C)c(C)o3)CC2)c1` was 730 s.
The value for `CCn1c(=O)n(CC)c2cc(S(=O)(=O)C3CCCCC3)c(NC(C)=O)cc21` was 791 s; that for `COCCNC(=O)c1ccc2c(c1)CCCN2S(C)(=O)=O` was 649 s; that for `CSc1nnc(NC(=O)c2ccccc2Br)s1` was 737 s.
The value for `CCn1cc(C(=O)Nc2ccc(F)c(C)c2)c2cccnc21` was 896 s; that for `Cn1nc(C(=O)N2CCCCC2)c2c1CCN(C(=O)CCC(=O)N1CCCC1)C2` was 622 s.
With `CCCn1c(=O)c(C)nc2cc(-c3noc(/C=C/c4ccc(OC)c(OC)c4)n3)ccc21`, the RP-LC retention time worked out at 735 s.
The value for `CCOC(=O)c1[nH]c(C)c(C(=O)N2CCC(CC(=O)NC(C)CC)CC2)c1C` (stereo not drawn) was 670 s; that for `CCC1CCCCN1C(=O)c1cnc2nc(C)ccc2c1Nc1ccc(S(N)(=O)=O)cc1` (stereo not drawn) was 589 s.
As to `COc1ccccc1Cn1cc(C(=O)c2ccccc2)c(=O)c2cc3c(cc21)OCCO3`, the RP-LC retention time came to 815 s.
As for `COc1ccc(Cl)cc1NC(=O)NCC(c1cccnc1)c1cn(C)c2ccccc12` (stereo not drawn), the figure is 785 s.
Molecule `O=C(C1CCCN(c2ncnc3c2nc2n3CCCCC2)C1)N1CCOCC1` (stereo not drawn) displayed an RP-LC retention time of 1270 s.
The value for `Cc1ccc(C)c(C(=O)N2CCCC(COc3ccc(C(=O)NC(C)C)cc3)C2)c1` (stereo not drawn) was 916 s.
As to `CN(CCc1noc(-c2ccc(C(=O)N3CCOCC3)cc2)n1)C(=O)C1CCCCC1`, the RP-LC retention time is 752 s.
`O=C(C1CC1)N1CCc2sc(S(=O)(=O)N3CCN(c4ccccc4)CC3)cc2C1` came in with an RP-LC retention time of 987 s.
The value for `Clc1ccc(C2Cn3nnc(-c4nc(-c5ccccn5)no4)c3CO2)cc1` (stereo not drawn) was 936 s.
As for `CCC1CN(C(=O)N2CCC(C(=O)NCCCOC(C)C)CC2)c2cc(C)ccc2O1` (stereo not drawn), the figure is 873 s.
The value for `Cc1cc2c(N3CCCC(C(=O)NCc4ccccc4Br)C3)nccc2s1` (stereo not drawn) was 714 s; that for `Cc1ccccc1Nc1c(-c2cccc(Br)c2)nc2ccc(Cl)cn12` was 1100 s.
The molecule `CC(C)c1ccc(NC(=O)C2CCN(S(=O)(=O)c3cc(C(=O)N(C)C)cs3)CC2)cc1` displayed an RP-LC retention time of 958 s.
The value for `COc1ccccc1CNC(=O)C1(c2ccc(NS(C)(=O)=O)cc2)CCCCC1` was 893 s; that for `Cc1ccc2c(Nc3cc(F)ccc3F)c(C(=O)OC(C)C)cnc2n1` was 771 s.
As for `O=C([C@@H]1C[C@H](Oc2ccccc2)CN1C1CCOCC1)N1CCc2ccccc21`, the figure is 709 s; as for `CN(C(=O)Cn1nc2n(c1=O)CCCC2)c1ccccc1`, 632 s.
As for `CN1CCC(C2CCN(S(=O)(=O)c3ccccc3Cl)C2)CC1` (stereo not drawn), the figure is 710 s; as for `Cc1noc(C)c1CN1CCN(C(=O)c2nc3ccccc3s2)CC1`, 574 s; as for `CCCn1cnc2ccc(-c3noc(-c4cccc(OC)c4)n3)cc21`, 728 s.
Consider `O=C1c2cc(O)cc(O)c2OC[C@@H]1c1ccc(O)c(O)c1`, for which the RP-LC retention time came out at 834 s.
The value for `COCCCNC(=O)C1CCN(c2nc3ccc(-c4ccccc4)nc3s2)CC1` was 835 s; that for `Cc1ccccc1N1CCN(c2ncnc3scc(-c4cccs4)c23)CC1` was 992 s; that for `CCOc1cccc(-c2noc(CN3C(=O)COc4ccc(C(C)(C)C)cc43)n2)c1` was 1380 s.
For `CN(C)c1cc(C(N)=O)c2cccc(Cl)c2n1`, the RP-LC retention time came out at 638 s.
The value for `COC(=O)c1cnc(N2CCN(C)CC2)c2ccccc12` was 610 s; that for `COc1cccc(CNC2=NCCNC23CCN(S(=O)(=O)c2ccc(C(C)(C)C)cc2)CC3)c1` was 837 s.
Regarding `O=C(Cc1ccc(F)cc1)NCC1CC(=O)N(Cc2ccc(F)cc2)C1` (stereo not drawn), the RP-LC retention time is 871 s.
In the case of `Cc1ccc2[nH]c3c(c2c1)CCNC31C(=O)Nc2ccccc21` (stereo not drawn), the RP-LC retention time stood at 643 s.
As for `Cc1ccc(S(=O)(=O)N2CCCCC2)cc1-c1nnc(-c2ccc(Cl)cc2)o1`, the figure is 1250 s.
The value for `Cc1oc(-c2[nH]ncc2C(=O)N2CCCC2)cc1S(=O)(=O)Nc1ccc(F)cc1F` was 698 s; that for `CNc1nccc(N2CCC(CC(=O)N3CCCCCC3)CC2)n1` was 539 s; that for `COc1ccc(C)cc1NC(=O)Cn1nc(C(=O)N2CCN(C)CC2)cc1C` was 583 s.
As for `O=C(c1cc(S(=O)(=O)N2CCCC(C(=O)N3CCCC3)C2)c[nH]1)N1CCCCCC1` (stereo not drawn), the figure is 733 s; as for `COc1ccc(-n2ncc(C(=O)N3CCN(C(=O)c4ccco4)CC3)c2-n2cccc2)cc1`, 717 s; as for `Cc1cc(C)c(S(=O)(=O)NCCc2cn(CC(C)C)c3ncccc23)cc1C`, 1040 s.
Turning to `CCN(CC)C(=O)c1ccc2c(c1)N(Cc1ccc(C)cc1)C(=O)CO2`, the RP-LC retention time was determined as 588 s.
As for `CCc1nnc(-c2ccc3ccn(CC(=O)N4CCN(c5ccccc5F)CC4)c3c2)o1`, the figure is 892 s.
As for `COc1ccc2oc(-c3csc(NC(=O)c4ccc(N5C(=O)CCC5=O)cc4)n3)cc2c1`, the figure is 884 s; as for `O=C(c1ccco1)N1CCN(c2ccc(-c3nc(-c4cccc(F)c4)no3)cn2)CC1`, 893 s; as for `O=C1CC(c2nc(-c3ccc4c(c3)OCO4)no2)CN1c1cccc(Cl)c1` (stereo not drawn), 999 s.
As for `Cc1nnc2ccc(-c3noc(-c4ccccc4)n3)cn12`, the figure is 867 s; as for `CCn1cc(-c2nc(C(=O)N3CCN(c4ccc(OC)cc4)CC3)cs2)c2cccnc21`, 887 s; as for `CCC(CC)NC(=O)c1c(OCC2CC2)cc(=O)n2c1CCCCC2`, 754 s.
Regarding `CCn1ccc2sc(C)c(C(=O)NCc3cccc(OC)c3OC)c2c1=O`, the RP-LC retention time came to 814 s.
As for `CCC(=O)Nc1cc(C)n(Cc2ccccc2)n1`, the figure is 733 s; as for `COc1ccc(-c2noc(-c3ccc(N4CCN(c5ccccn5)CC4)nc3)n2)cc1`, 764 s.
For the molecule `CCc1cccc(Nc2nc3ccncc3n(Cc3ccccc3)c2=O)c1`, the RP-LC retention time came out at 742 s.
For `CCCN(C(=O)c1cccc(F)c1)c1nc(-c2ccccc2)cs1`, the RP-LC retention time was found to be 1310 s.
